Test system: 695427-040-R-J1-PDC complex spheroids, viability percent T/C
Experiment: Anticancer human tumor 695427-040-R-J1-PDC patient-derived colon adenocarcinoma cell line growth inhibition [GQUAD]
Conditions: for IC50: curve of first compound; for viability, T/C: stronger effect = lower value; active = viability on the fitted dose curve at most 10% of control; inactive = the rest
Source text: DNA G-quadruplex Stabilizer Agents in Combinations in Complex Spheroids
A high-throughput screen of multi-cell type tumor spheroids was designed to identify active combinations of DNA G-quadruplex stabilizer agents and targeted small molecules. Complex spheroids include a stromal component modeled by human endothelial cells (HUVEC) and fibroblasts modeled by human mesenchymal stem cells (MSCs). The concentration ranges selected for each drug and investigational agent were based upon clinically achievable concentrations if the clinical Cmax of the agent was known.
Compounds. The drugs and investigational agents: pidnarulex (CX-5461; NSC782164), APTO-253 (NSC789042), BRACO-19 (NSC847499), peposertib (NSC802822), ceralasertib (NSC780249), elimusertib (NSC800525), camonsertib (NSC841442), AZD-1390 (NSC803789), olaparib (NSC753686), talazoparib (NSC767125), ART-558 (NSC835418), sotorasib (NSC818433), MRTX-1133 (NSC836407), SN-38 (NSC673596), topotecan (NSC609699), etoposide (NSC141540), doxorubicin (NSC123127), gemcitabine (NSC613327), 5-fluorouracil (NSC19893), paclitaxel (NSC125973), vemurafenib (NSC761431), panobinostat (NSC761190), R-306465 (JNJ-16241199; NSC773264), adavosertib (NSC754352), TP-3654 (NSC805149), carboplatin (NSC241240), KSQ-4279 (NSC840948), and staurosporine (NSC755774) were obtained from the National Cancer Institute (NCI) Developmental Therapeutics Program Chemical Repository (34). The FDA-approved anticancer drug set is available from the NCI Developmental Therapeutics Program. […] The stock solutions were prepared in dimethyl sulfoxide (DMSO, Sigma-Aldrich, St. Louis, MO, cat. D2650) at 800-fold the tested concentration and stored at -70 degrees C prior to their use. All drugs and investigational agents were tested over a range starting from a high concentration at or near the clinical Cmax and decreasing in half-log increments. If the clinical Cmax for an agent had not been determined, the highest concentration tested was 10 microM.
2.3 Cell Culture. All cells were maintained in an incubator at 37 degrees C and 5% CO2 with 95% humidity. The PDC lines were cultured according to standard operating procedures established by the NCI PDMR. All PDCs were thawed and cultured in Matrigel-coated flasks prepared with a working solution of 1X Ham's F-12 nutrient mix, without supplementation (Invitrogen, cat. 11765054), 100 U/mL penicillin-streptomycin (Invitrogen, cat. 15140122), and 2.5% Matrigel (Corning Inc., cat. 354248) for the first three passages. The 857933-349-R-J2-PDC line was cultured in 6C/Colon 1B media, which includes advanced DMEM/F-12 (Thermo Fisher Scientific, cat. 12634028), 10 mM HEPES (Thermo Fisher Scientific, cat. 15630080), 1X GlutaMAX supplement (Thermo Fisher Scientific, cat. 35050061), 0.1 mg/mL primocin (InvivoGen, cat. ant-pm-2), 10% defined fetal bovine serum, heat inactivated (HyClone Laboratories Inc., cat. SH30070.03HI), 50% L-WRN conditioned media (ATCC, cat. CRL-3276), 1.25 mM N-Acetyl-L-cysteine (Sigma-Aldrich, cat. A9165), 10 mM nicotinamide (Sigma-Aldrich, cat. N0636), 1X B-27 supplement (Thermo Fisher Scientific, cat. 17504044), 1X N-2 supplement (Thermo Fisher Scientific, cat. 17502048), 10 microM Y-27632 dihydrochloride (Tocris Bioscience, cat. 1254), and 50 ng/mL human EGF recombinant protein (Thermo Fisher Scientific, cat. PHG0311). The 485176-168-R4-J1-PDC line was cultured in Panc media, which includes all 6C/Colon 1B media components plus 100 ng/mL human FGF-10 (Thermo Fisher Scientific, cat. 100-26), 500 nM SB-431542 (Selleckchem, cat. S1067), and gastrin (Tocris, cat. 3006).
[…]
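Also: spheroids exposed to compounds for seven days before readout.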

C#Cc1c(F)ccc2cc(O)cc(-c3ncc4c(N5CC6CCC(C5)N6)nc(OCC56CCCN5CC(F)C6)nc4c3F)c12 (configuration not stated) + Cc1[nH]c2ccc(F)cc2c1-c1nc2c3cccnc3c3ncccc3c2[nH]1
932 nM: IC50 (second compound 1 µM)
444 nM: IC50 (second compound 3.16 µM)
inactive: viability, T/C (second compound 0.0316 µM, first compound 0.0316 µM) 105% | viability, T/C (second compound 0.0316 µM, first compound 0.1 µM) 95.3% | viability, T/C (second compound 0.0316 µM, first compound 0.316 µM) 99.3% | viability, T/C (second compound 0.0316 µM, first compound 1 µM) 75.5% | viability, T/C (second compound 0.0316 µM, first compound 3.16 µM) 10.3% | viability, T/C (second compound 0.0316 µM, first compound 10 µM) 11.7% | viability, T/C (second compound 0.1 µM, first compound 0.0316 µM) 117% | viability, T/C (second compound 0.1 µM, first compound 0.1 µM) 91.6% | viability, T/C (second compound 0.1 µM, first compound 0.316 µM) 93.7% | viability, T/C (second compound 0.1 µM, first compound 1 µM) 62.3% | viability, T/C (second compound 0.1 µM, first compound 3.16 µM) 7.36% | viability, T/C (second compound 0.316 µM, first compound 0.0316 µM) 102% | viability, T/C (second compound 0.316 µM, first compound 0.1 µM) 96.7% | viability, T/C (second compound 0.316 µM, first compound 0.316 µM) 80.4% | viability, T/C (second compound 0.316 µM, first compound 1 µM) 55.7% | viability, T/C (second compound 0.316 µM, first compound 3.16 µM) 5.93% | viability, T/C (second compound 1 µM, first compound 0.0316 µM) 86.8% | viability, T/C (second compound 1 µM, first compound 0.1 µM) 84.5% | viability, T/C (second compound 1 µM, first compound 0.316 µM) 82.5% | viability, T/C (second compound 1 µM, first compound 1 µM) 48% | viability, T/C (second compound 3.16 µM, first compound 0.0316 µM) 73.6% | viability, T/C (second compound 3.16 µM, first compound 0.1 µM) 73.2% | viability, T/C (second compound 3.16 µM, first compound 0.316 µM) 62.5% | viability, T/C (second compound 3.16 µM, first compound 1 µM) 19.9% | viability, T/C (second compound 10 µM, first compound 0.0316 µM) 70.8% | viability, T/C (second compound 10 µM, first compound 0.1 µM) 60.4% | viability, T/C (second compound 10 µM, first compound 0.316 µM) 61.4% | viability, T/C (second compound 10 µM, first compound 1 µM) 21.9%
1580 nM: IC50 (second compound 0.0316 µM)
1010 nM: IC50 (second compound 0.316 µM)
active: viability, T/C (second compound 0.1 µM, first compound 10 µM) 8.21% | viability, T/C (second compound 0.316 µM, first compound 10 µM) 5.99% | viability, T/C (second compound 1 µM, first compound 3.16 µM) 3.1% | viability, T/C (second compound 1 µM, first compound 10 µM) 2.8% | viability, T/C (second compound 3.16 µM, first compound 3.16 µM) 1.77% | viability, T/C (second compound 3.16 µM, first compound 10 µM) 1.26% | viability, T/C (second compound 10 µM, first compound 3.16 µM) 1.1% | viability, T/C (second compound 10 µM, first compound 10 µM) 1.13%
438 nM: IC50 (second compound 10 µM)
1280 nM: IC50 (second compound 0.1 µM)

Reference: PubChem BioAssay AID2060492 (Molecular Pharmacology Branch, DTP, NCI, 2025)
